Data published in the NIST ThermoML archive (doi:10.1016/j.jct.2007.09.009).
Values joined by “and” are separate entries in the source; they are usually repeats but may differ in a detail not shown here. Equal values may be shown once. ± gives the expanded uncertainty stated by the source.

Assay: xn = mol fraction of the nth substance listed
Conditions: 313.15 K, 101 kPa, Liquid, Direct dilatometry

For CC(=O)N(C)C [N,N-dimethylethanamide] + O, the excess molar volume (x1 = 0.0092) was -3.79e-08 ± 3.2e-09 m3/mol, the excess molar volume (x1 = 0.0196) was -8.59e-08 ± 3.2e-09 m3/mol and the excess molar volume (x1 = 0.03) was -1.402e-07 ± 3.3e-09 m3/mol. For the same compound, the excess molar volume (x1 = 0.0556) was -2.881e-07 ± 3.5e-09 m3/mol, the excess molar volume (x1 = 0.0704) was -3.778e-07 ± 3.6e-09 m3/mol and the excess molar volume (x1 = 0.0823) was -4.496e-07 ± 3.7e-09 m3/mol. It also gave an excess molar volume (x1 = 0.0853) of -4.67e-07 ± 3.6e-09 m3/mol, an excess molar volume (x1 = 0.091) of -4.98e-07 ± 3.7e-09 m3/mol and an excess molar volume (x1 = 0.0968) of -5.344e-07 ± 3.8e-09 m3/mol. The excess molar volume (x1 = 0.0981) was -5.428e-07 ± 3.8e-09 m3/mol, the excess molar volume (x1 = 0.1063) was -5.918e-07 ± 3.8e-09 m3/mol and the excess molar volume (x1 = 0.1088) was -6.146e-07 ± 3.8e-09 m3/mol. For the same compound, the excess molar volume (x1 = 0.1167) was -6.527e-07 ± 3.8e-09 m3/mol, the excess molar volume (x1 = 0.1258) was -7.063e-07 ± 3.9e-09 m3/mol and the excess molar volume (x1 = 0.1364) was -7.653e-07 ± 3.9e-09 m3/mol. It also gave an excess molar volume (x1 = 0.1478) of -8.283e-07 ± 4e-09 m3/mol, an excess molar volume (x1 = 0.1603) of -8.946e-07 ± 4e-09 m3/mol and an excess molar volume (x1 = 0.1651) of -9.21e-07 ± 4e-09 m3/mol. The excess molar volume (x1 = 0.1728) was -9.553e-07 ± 4.1e-09 m3/mol and -9.577e-07 ± 4.1e-09 m3/mol, the excess molar volume (x1 = 0.1851) was -1.017e-06 ± 4.1e-09 m3/mol and the excess molar volume (x1 = 0.1902) was -1.039e-06 ± 4.1e-09 m3/mol. It also gave an excess molar volume (x1 = 0.2039) of -1.098e-06 ± 4.2e-09 m3/mol, an excess molar volume (x1 = 0.2221) of -1.172e-06 ± 4.2e-09 m3/mol and an excess molar volume (x1 = 0.2379) of -1.229e-06 ± 4.3e-09 m3/mol. For the same compound, the excess molar volume (x1 = 0.2514) was -1.273e-06 ± 4.3e-09 m3/mol, the excess molar volume (x1 = 0.2642) was -1.315e-06 ± 4.3e-09 m3/mol and the excess molar volume (x1 = 0.2665) was -1.318e-06 ± 4.3e-09 m3/mol. The excess molar volume (x1 = 0.2718) was -1.334e-06 ± 4.4e-09 m3/mol, the excess molar volume (x1 = 0.2773) was -1.349e-06 ± 4.4e-09 m3/mol and the excess molar volume (x1 = 0.2787) was -1.35e-06 ± 4.4e-09 m3/mol. For the same compound, the excess molar volume (x1 = 0.2883) was -1.374e-06 ± 4.4e-09 m3/mol, the excess molar volume (x1 = 0.2987) was -1.397e-06 ± 4.4e-09 m3/mol and the excess molar volume (x1 = 0.31) was -1.418e-06 ± 4.4e-09 m3/mol. The excess molar volume (x1 = 0.3216) was -1.44e-06 ± 4.5e-09 m3/mol, the excess molar volume (x1 = 0.3377) was -1.463e-06 ± 4.5e-09 m3/mol and the excess molar volume (x1 = 0.352) was -1.479e-06 ± 4.5e-09 m3/mol. It also gave an excess molar volume (x1 = 0.3679) of -1.493e-06 ± 4.5e-09 m3/mol, an excess molar volume (x1 = 0.3759) of -1.501e-06 ± 4.5e-09 m3/mol and an excess molar volume (x1 = 0.3782) of -1.499e-06 ± 4.5e-09 m3/mol. For the same compound, the excess molar volume (x1 = 0.3812) was -1.502e-06 ± 4.5e-09 m3/mol, the excess molar volume (x1 = 0.3884) was -1.506e-06 ± 4.5e-09 m3/mol and the excess molar volume (x1 = 0.3918) was -1.505e-06 ± 4.5e-09 m3/mol. The excess molar volume (x1 = 0.3948) was -1.508e-06 ± 4.5e-09 m3/mol, the excess molar volume (x1 = 0.4047) was -1.511e-06 ± 4.5e-09 m3/mol and the excess molar volume (x1 = 0.4141) was -1.511e-06 ± 4.5e-09 m3/mol. For the same compound, the excess molar volume (x1 = 0.4248) was -1.511e-06 ± 4.5e-09 m3/mol, the excess molar volume (x1 = 0.4402) was -1.507e-06 ± 4.5e-09 m3/mol and the excess molar volume (x1 = 0.4583) was -1.497e-06 ± 4.5e-09 m3/mol. For the same compound, the excess molar volume (x1 = 0.47) was -1.489e-06 ± 4.5e-09 m3/mol, the excess molar volume (x1 = 0.4759) was -1.487e-06 ± 4.5e-09 m3/mol and the excess molar volume (x1 = 0.4881) was -1.473e-06 ± 4.5e-09 m3/mol. For the same compound, the excess molar volume (x1 = 0.4976) was -1.464e-06 ± 4.5e-09 m3/mol, the excess molar volume (x1 = 0.5257) was -1.43e-06 ± 4.4e-09 m3/mol and the excess molar volume (x1 = 0.5546) was -1.38e-06 ± 4.4e-09 m3/mol. It also gave an excess molar volume (x1 = 0.5961) of -1.295e-06 ± 4.3e-09 m3/mol, an excess molar volume (x1 = 0.6483) of -1.173e-06 ± 4.2e-09 m3/mol and an excess molar volume (x1 = 0.6819) of -1.082e-06 ± 4.1e-09 m3/mol. The excess molar volume (x1 = 0.7273) was -9.449e-07 ± 4e-09 m3/mol, the excess molar volume (x1 = 0.732) was -9.375e-07 ± 4e-09 m3/mol and the excess molar volume (x1 = 0.755) was -8.613e-07 ± 3.9e-09 m3/mol. It also gave an excess molar volume (x1 = 0.7743) of -8.015e-07 ± 3.9e-09 m3/mol, an excess molar volume (x1 = 0.7939) of -7.378e-07 ± 3.8e-09 m3/mol and an excess molar volume (x1 = 0.8089) of -6.896e-07 ± 3.7e-09 m3/mol. For the same compound, the excess molar volume (x1 = 0.8158) was -6.653e-07 ± 3.7e-09 m3/mol, the excess molar volume (x1 = 0.8331) was -6.07e-07 ± 3.7e-09 m3/mol and the excess molar volume (x1 = 0.8622) was -5.075e-07 ± 3.6e-09 m3/mol. For the same compound, the excess molar volume (x1 = 0.8823) was -4.342e-07 ± 3.6e-09 m3/mol, the excess molar volume (x1 = 0.884) was -4.256e-07 ± 3.6e-09 m3/mol and the excess molar volume (x1 = 0.9064) was -3.494e-07 ± 3.4e-09 m3/mol. The excess molar volume (x1 = 0.9258) was -2.754e-07 ± 3.3e-09 m3/mol, the excess molar volume (x1 = 0.9539) was -1.863e-07 ± 3.7e-09 m3/mol and the excess molar volume (x1 = 0.9568) was -1.596e-07 ± 3.7e-09 m3/mol. It also gave an excess molar volume (x1 = 0.9716) of -1.062e-07 ± 3.2e-09 m3/mol.
